Data reported in patent US9821062B2, “Cyanine dye compound and preparation method therefor, and dual-function agent for photodynamic therapy and preparation method therefor” (ZHEJIANG HISUN PHARMACEUTICAL CO., LTD., priority 2012, dated 2017).

Experiment: Ultraviolet spectroscopy detection: long-wavelength absorption peak, fluorescence, Stokes shift
Type: physicochemical
Excerpt: Electronic absorption spectra for the compounds are shown in FIG. 1, from which it can be seen that, all the compounds having a structure shown in formula VIII, formula IX, formula III, formula IV, formula V, and formula XVII provided according to the present invention show a strong long-wavelength absorption peak between 750 nm and 860 nm, and have an obvious Stokes shift between 37 nm and 41 nm.

- Fluorescence: 876 nm
- Stokes shift: 39 nm
- Absorption peak (long-wavelength absorption peak): 837 nm
Compound: CC1(C)C(/C=C/C2=C(Sc3ccc(C(=O)O)cc3)C(=C/C=C3/N(CCCCS(=O)(=O)O)c4ccc5ccccc5c4C3(C)C)/CCC2)=[N+](CCCCS(=O)(=O)O)c2ccc3ccccc3c21 [Formula IX]
